Results published in patent US20250332290A1, “PSMA-TARGETING LIGANDS FOR MULTIMODAL APPLICATIONS” (STICHTING RADBOUD UNIVERSITAIR MEDISCH CENTRUM, priority 2021, published 2025).
Where “and” joins values, the source holds several entries; their conditions need not be identical. Equal entries are not always repeated.

Assays:
[1] = target: T1, PSMA (LS174T-PSMA cells) (Homo sapiens, UniProt Q04609); assay: Competitive binding assay against 111In-labeled PSMA-617 using LS174T-PSMA cells; settings: on ice 2 h, 111In-labeled PSMA-617 as competitor, unlabeled ligand 0.01-300 nM
T1 construct: expressed in transfected cells
T1 sequence (Q04609 whole entry): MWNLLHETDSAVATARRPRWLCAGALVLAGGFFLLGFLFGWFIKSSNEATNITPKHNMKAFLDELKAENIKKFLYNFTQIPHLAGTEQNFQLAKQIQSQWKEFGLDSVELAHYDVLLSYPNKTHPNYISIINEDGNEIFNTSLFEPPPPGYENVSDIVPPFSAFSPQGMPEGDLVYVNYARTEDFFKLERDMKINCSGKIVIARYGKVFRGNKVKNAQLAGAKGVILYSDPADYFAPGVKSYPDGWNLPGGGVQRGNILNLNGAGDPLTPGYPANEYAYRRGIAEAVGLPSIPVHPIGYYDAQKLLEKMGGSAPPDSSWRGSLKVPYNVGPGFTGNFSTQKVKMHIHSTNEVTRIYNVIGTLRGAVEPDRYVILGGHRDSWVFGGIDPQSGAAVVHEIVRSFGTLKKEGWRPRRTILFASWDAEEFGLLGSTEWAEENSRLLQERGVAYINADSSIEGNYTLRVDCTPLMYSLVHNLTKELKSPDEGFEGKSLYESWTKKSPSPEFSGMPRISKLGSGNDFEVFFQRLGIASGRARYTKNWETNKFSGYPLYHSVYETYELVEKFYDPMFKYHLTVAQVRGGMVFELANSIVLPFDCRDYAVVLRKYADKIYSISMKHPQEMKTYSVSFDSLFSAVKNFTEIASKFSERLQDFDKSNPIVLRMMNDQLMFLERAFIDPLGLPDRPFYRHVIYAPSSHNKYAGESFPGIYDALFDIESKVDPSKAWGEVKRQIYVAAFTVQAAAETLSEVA
Method: (§1) IC50: The 50% inhibitory concentration (IC50) of the ligands was determined using LS174T-PSMA cells in a competitive binding assay. The LS174T-PSMA cells were cultured to confluency in 6-wells plates, followed by incubation on ice for 2 h in 1 mL of binding buffer (RPMI/0.5% BSA) with 50,000 cpm of ^111In-labeled PSMA-617 and a series of increasing concentrations (0.01-300 nM) of unlabeled PSMA ligands. After incubation, cells were washed with 2 ml PBS and lysed with 1.5 ml 0.1 M NaOH. Cell lysis was collected from the plate and the cell-associated activity was measured in a gamma-counter and IC50 values were calculated using GraphPad Prism software version 5.03. Lipophilicity: LogD values of all radiolabeled ligands were determined by adding 300,000 cpm (0.6-1.5 pmol) to a mixture of 3 ml PBS (pH 7.4) and 3 ml n-octanol. Tubes were vortexed vigorously for 1 min and centrifuged for 5 min at 201×g. The concentration of radioactivity in a defined volume of each layer was measured in a well-type gamma-counter.

[2] = Lipophilicity, LogD of radiolabeled ligands in PBS (pH 7.4) / n-octanol; assay type: physicochemical; settings: radiolabeled ligand
Method: as §1

[3] = target: T1, PSMA (LS174T-PSMA cells); assay: Alternative internalization assay in LS174T-PSMA cells; assay type: cell-based; settings: 2 h at 37° C.
Method: Alternative internalization assay: binding and internalization characteristics of all ligands were compared using LS174T-PSMA and wildtype LS174T cells, cultured to confluency in 6-wells plates. Cells were incubated with 50,000 counts per minute (cpm) ^111In- or ^99mTc-labeled PSMA ligand (0.1-0.25 pmol/well) in 1 ml binding buffer (RPMI/0.5% BSA) for 2 h at 37° C. Nonspecific binding was determined by co-incubation with 2-(phosphonomethyl) pentane-1,5-dioic acid (2-PMPA, 21.57 µM). Cells were washed with PBS and incubated with acid buffer (0.1 M acetic acid, 154 mM NaCl, pH 2.6) for 10 minutes at 0° C. to retrieve the membrane-bound fraction. After this, the membrane-bound fraction was collected, cells were washed, lysed with 1.5 ml 0.1 M NaOH and cell lysis (intracellular activity) was collected. Membrane-bound activity and intracellular activity fractions were measured in a gamma-counter (2480 WIZARD^2 Automatic Gamma Counter, PerkinElmer) (6,42).

[4] = target: T1, PSMA (LS174T-PSMA cells); assay: Binding and internalization assay with 111In-labelled ligands on PSMA-expressing LS174T-PSMA cells; assay type: cell-based; settings: for Average binding %, Internalized / Average binding %, Membrane bound / Average binding %, Total: 111In-labelled, 50,000 cpm, 2 h at 37° C., LS174T-PSMA cells
Method: Each labelled ligand (0.01 mL) was dissolved in PBS (0.5 mL) and diluted 1:10:100 in three tubes, resulting in tube 1 1×, tube 2 10× and tube 3 100× dilution. The tubes were measured by a gamma-counter to determine the counts per minute of known ligand concentrations. The calculated amounts of ligand were transferred from tubes 2 into new tubes and filled with binding buffer to total volume 0.5 mL. These solutions are needed for the binding and internalization assay.
Two days before the assay, four six-well plates were plated with 0.3-1.0 million PSMA-expressing LS174T-PSMA cells per well in culture medium (2 mL). On the day of the assay, the cells were washed with PBS. Binding buffer (0.5% BSA in RMPI 1640, 2 mL) and 50,000 counts per minute of radiolabelled PSMA-ligand (0.005 mL) were added from tubes prepared according to calculation with standards. Each ligand was examined in triplicate. The cells were incubated at 37° C. for 2 hours and after this the medium was removed. The cells were washed with ice-cold PBS and cooled to 0° C. After incubating the cells with acid buffer pH 2.6 (0.1M acetic acid, 0.15 M NaCl, 2 mL) for 10 minutes, the membrane-bound ligands were collected in tubes. The cells were washed with ice-cold PBS again and these fractions were collected as control. NaOH was added to the cells (0.1 M, 2 mL) for 10 minutes to lyse the cells and free the internalized ligands. The ^111In-radiocounts per minute of all fractions and standards were measured by a gamma-counter. From this, the ligand-PSMA binding percentages and internalization fraction were quantified.

SMILES | IC50 [1] | LogD [2] | Internalization Ratio (%) [3] | Average binding %, Internalized [4] | Average binding %, Membrane bound [4] | Average binding %, Total [4] | total binding to PSMA expressing cells relative to PSMA-617 ([4]; ratio of total binding percentages)
CC1(C)C(=CC=C2CCCC(C=CC3=[N+](CCCCCC(=O)NCCCCC(NC(=O)CN4CCN(CC(=O)O)CCN(CC(=O)O)CCN(CC(=O)O)CC4)C(=O)NCCCCC(NC(=O)C(CCC(=O)O)NC(=O)c4cccnc4)C(=O)NCc4ccc(C(=O)NC(Cc5ccc6ccccc6c5)C(=O)NCCCCC(NC(=O)NC(CCC(=O)O)C(=O)O)C(=O)O)cc4)c4ccc(S(=O)(=O)O)cc4C3(C)C)=C2Oc2ccc(S(=O)(=O)O)cc2)N(CCCCS(=O)(=O)O)c2ccc(S(=O)(=O)O)cc21 (stereo not shown) [Compound K11] | 312 nM | −4.4 +/− 0.01 | 74.1 +/− 20.3% | – | – | – | –
CC(=O)SCC(=O)NCC(=O)NCC(=O)NCC(=O)NC(CCCCNC(=O)CCCCC[N+]1=C(C=CC2=C(Oc3ccc(S(=O)(=O)O)cc3)C(=CC=C3N(CCCCS(=O)(=O)O)c4ccc(S(=O)(=O)O)cc4C3(C)C)CCC2)C(C)(C)c2cc(S(=O)(=O)O)ccc21)C(=O)NCCCCC(NC(=O)C(CCC(=O)O)NC(=O)c1cccnc1)C(=O)NCc1ccc(C(=O)NC(Cc2ccc3ccccc3c2)C(=O)NCCCCC(NC(=O)NC(CCC(=O)O)C(=O)O)C(=O)O)cc1 (stereo not shown) [Compound K12] | 475 nM | −3.5 +/− 0.01 | 61.0 +/− 12.8% | – | – | – | –
CC1(C)C(/C=C/C2=C(Oc3ccc(S(=O)(=O)O)cc3)C(=C/C=C3/N(CCCCS(=O)(=O)O)c4ccc(S(=O)(=O)O)cc4C3(C)C)/CCC2)=[N+](CCCCCC(=O)NCCC(=O)N2Cc3ccccc3-c3c(cnn3CCCCC(NC(=O)CN3CCN(CC(=O)O)CCN(CC(=O)O)CCN(CC(=O)O)CC3)C(=O)NCCCC[C@H](NC(=O)[C@H](CCC(=O)O)NC(=O)c3cccnc3)C(=O)NCc3ccc(C(=O)N[C@@H](Cc4ccc5ccccc5c4)C(=O)NCCCC[C@H](NC(=O)N[C@@H](CCC(=O)O)C(=O)O)C(=O)O)cc3)-c3ccccc32)c2ccc(S(=O)(=O)O)cc21 (stereo partly shown) [Compound K13] | 184 nM | −3.2 +/− 0.16 | 80.6 +/− 11.6% | – | – | – | –
O=C(O)CC[C@H](NC(=O)N[C@@H](CCCCNC(=O)[C@H](Cc1ccc2ccccc2c1)NC(=O)c1ccc(CNC(=O)[C@H](CCCCNC(=O)CN2CCN(CC(=O)O)CCN(CC(=O)O)CCN(CC(=O)O)CC2)NC(=O)[C@H](CCC(=O)O)NC(=O)c2ccccc2)cc1)C(=O)O)C(=O)O [Compound K9] | – | – | – | 9.06% | 9.87% | 18.9% and 18.93% | 2.6 times
O=C(O)CC[C@H](NC(=O)N[C@@H](CCCCNC(=O)[C@H](Cc1ccc2ccccc2c1)NC(=O)[C@H]1CC[C@H](CNC(=O)CN2CCN(CC(=O)O)CCN(CC(=O)O)CCN(CC(=O)O)CC2)CC1)C(=O)O)C(=O)O [PSMA-617, reference compound] | 8.5 nM | −4.1 +/− 0.01 | 48.4 +/− 12.4% | 3.39% | 3.80% | 7.19% | –
